# Measurements as given in US7261880B2, “Methods of treating Syndrome X with aliphatic polyamines” (priority 2001, dated 2007).
# Read-outs that look alike come from different tables or passages of the source. Marks after values point to notes of the source that are not given here.
# Columns and labels:
# [1] = test system: patients with primary hypercholesterolemia; conditions: 4 weeks
# [2] = test system: patients with primary hypercholesterolemia; conditions: Lovastatin 10 mg/day, 4 weeks
# [3] = test system: patients with primary hypercholesterolemia; assay: Simvastatin Trial (6-week), colesevelam in combination with simvastatin; type: in vivo, human; conditions: 6 weeks
smiles,measurement,setting,value
"CC(C)c1c(C(=O)Nc2ccccc2)c(-c2ccccc2)c(-c2ccc(F)cc2)n1CC[C@@H](O)C[C@@H](O)CC(=O)O [Atorvastatin, atorvastatin]",Apo B mean percentage change,[1]; Atorvastatin 10 mg/day,−32* %
same,HDL-C median percentage change,[1]; Atorvastatin 10 mg/day,+8%
same,LDL-C mean percentage change,[1]; Atorvastatin 10 mg/day,−38* %
same,TG median percentage change,[1]; Atorvastatin 10 mg/day,−24* %
same,Total-C mean percentage change,[1]; Atorvastatin 10 mg/day,−27* %
same,Apo B mean percentage change,[1]; Atorvastatin 80 mg/day,−46* %
same,HDL-C median percentage change,[1]; Atorvastatin 80 mg/day,+6%
same,LDL-C mean percentage change,[1]; Atorvastatin 80 mg/day,−53* %
same,TG median percentage change,[1]; Atorvastatin 80 mg/day,−33* %
same,Total-C mean percentage change,[1]; Atorvastatin 80 mg/day,−39* %
"CC[C@H](C)C(=O)O[C@H]1C[C@@H](C)C=C2C=C[C@H](C)[C@H](CC[C@@H]3C[C@@H](O)CC(=O)O3)[C@H]21 [Lovastatin, lovastatin]",Apo B mean percentage change,[2],−16%
same,HDL-C median percentage change,[2],+5%
same,LDL-C mean percentage change,[2],−22* %
same,TG median percentage change,[2],0%
same,Total-C mean percentage change,[2],−14* %
"CCC(C)(C)C(=O)O[C@H]1C[C@@H](C)C=C2C=C[C@H](C)[C@H](CC[C@@H]3C[C@@H](O)CC(=O)O3)[C@H]21 [Simvastatin, simvastatin]",Apo B mean percentage change,[3]; Simvastatin 10 mg/day,−20* %
same,HDL-C median percentage change,[3]; Simvastatin 10 mg/day,+3* %
same,LDL-C mean percentage change,[3]; Simvastatin 10 mg/day,−26* %
same,TG median percentage change,[3]; Simvastatin 10 mg/day,−17* %
same,Total-C mean percentage change,[3]; Simvastatin 10 mg/day,−19* %
same,Apo B mean percentage change,[3]; Simvastatin 20 mg/day,−26* %
same,HDL-C median percentage change,[3]; Simvastatin 20 mg/day,+7* %
same,LDL-C mean percentage change,[3]; Simvastatin 20 mg/day,−34* %
same,TG median percentage change,[3]; Simvastatin 20 mg/day,−12* %
same,Total-C mean percentage change,[3]; Simvastatin 20 mg/day,−23* %
